Patent US20260365655A1, “NEW USE OF JANUS KINASE (JAK)-DEGRADING AGENT BASED ON PROTEOLYSIS TARGETING CHIMERA (PROTAC)” (SHANGHAI SKIN DISEASE HOSPITAL, priority 2022, published 2026)
“And” between values parts separate entries of the source, which are not always exact repeats. Equal entries are not always repeated.

Experiments:
[1] = tested on: mouse ear eczema model (atopic dermatitis); experiment: Mouse ear eczema model (calcipotriol-induced): SCORAD of skin damage and overall therapeutic effect; assay type: in vivo, BALB/c mice; conditions: 0.15% cream for external use; result is for model group relative to the treated groups
Description: (§1) (1) Preparation method of a JAK-PROTAC cream: the same as in Example 1.
(§2) (2) Positive therapeutic drug: a 0.050% dexamethasone acetate cream (manufacturer: Shanghai Skin Disease Hospital).
(§3) (3) Blank matrix: a matrix component produced after the active ingredient JAK-PROTAC was removed from the cream.
(§4) (4) Molding agent: solution of calcipotriol in ethanol (manufacturer: MACKLIN).
(§5) (1) The mice were randomly divided into a blank control group (6 mice) (Control), a model group (6 mice) (Model), a positive drug group (6 mice) (Positive), a Compound 1-treating group (0.15% JAK-PROTAC cream 1 for external use) (6 mice) (Treat 1), and a Compound 2-treating group (0.15% JAK-PROTAC cream 2 for external use) (6 mice) (Treat 2).
(2) Molding was conducted in the following manner: […]
(1) The photographing was conducted every day. The severity of skin damage in an ear application region was evaluated through SCORAD for mice. […] Each symptom was scored as 0 to 3 depending on the severity of a skin damage: asymptomatic: 0, mild: 1, moderate: 2, and severe: 3. […]

[2] = tested on: mouse ear eczema model (spleen); experiment: Mouse ear eczema model: body weight, spleen weight and spleen index; assay type: in vivo, BALB/c mice; conditions: for Ranking in terms of spleen weight and spleen index: AD model, positive drug, Compound 1 and Compound 2 groups; for Therapeutic effect for AD / Therapeutic effect versus the positive drug: atopic dermatitis mouse models; for Therapeutic effect versus the positive drug: positive drug = 0.050% dexamethasone acetate cream; for Spleen weights and spleen indexes versus blank control group: compared with the blank control group; for Spleen weight, mean value: group mean; for Spleen weight, mean value / Spleen weight: day 11, wet weight; for Spleen weight: individual mice
Description: as §1, §2, §3, §4, §5
(2) Molding was conducted in the following manner:
(§6) A. On day 0 to day 7 of the modeling: At 9 a.m., the blank control group was administered with the cream matrix, the model group was administered with the molding agent, the positive group was administered with the molding agent, the Compound 1-treating group was administered with the molding agent, and the Compound 2-treating group was administered with the molding agent. At 5 p.m., the blank control group was not treated, the model group was administered with the cream matrix, the positive group was administered with the dexamethasone acetate cream, the Compound 1-treating group was administered with the JAK-PROTAC cream 1, and the Compound 2-treating group was administered with the JAK-PROTAC cream 2.
as §6, with “B.” for “A.”, “8” for “0”, “10” for “7”, “modeling, at” for “modeling: At”, “not treated,” for “administered with the molding agent,”, “not treated.” for “administered with the molding agent.”
C. On day 11 of the modeling: At 9 a.m., the blank control group was administered with the cream matrix, the model group was not treated, the positive group was not treated, the Compound 1-treating group was not treated, and the Compound 2-treating group was not treated. At 1 p.m., the mice were sacrificed through cervical dislocation, and the spleen and two ears of each mouse were collected.
(3) Spleen index testing:
After the mice were sacrificed, a spleen tissue was collected, dried with a filter paper to remove blood stains on a surface, and weighed for a wet weight. A spleen index was calculated as follows: spleen index=10,000×spleen weight (g)/body weight (g).
(2) A body weight and thicknesses of two ears of each mouse were recorded daily.
(3) After the experiment was completed, a spleen index of each mouse was calculated.
The data of the present disclosure was processed with the Excel and GraphPad software. The experimental data was tested by one-way ANOVA. The post-hoc multiple comparison was conducted with the least significant difference (LSD). P<0.05 indicated a significant difference.

[3] = HaCaT cell viability by CCK-8 assay; assay type: cell-based; conditions: human, hacat cells
Description: (1) Reagents: compound 1: a compound shown by Compound 1 in Formula (I); compound 2: a compound shown by Compound 2 in Formula (I); Dulbecco's Modified Eagle Medium (DMEM) high-glucose medium: Wuhan Pricella Biotechnology Co., Ltd.; South American fetal bovine serum (FBS) and trypsin: Gibco, USA; penicillin-streptomycin: Hyclone, USA; and CCK-8 kit: Beyotime.
(2) Instruments: CO2 incubator: HERA cell 240; and microplate reader: Thermo Fisher Scientific, USA.
The cultured HaCaT cells were counted under a microscope to be about 2×10^6 cells/mL, then inoculated in a 96-well plate at about 6×10^3 cells/well, and incubated overnight in a 37 °C and 5% CO2 incubator. After cells were adherent, a medium was removed, and 200 μL of each of complete media including compounds 1 and 2 at different concentrations (0.05 μg/mL, 0.1 μg/mL, 0.2 μg/mL, 0.5 μg/mL, 1 μg/mL, 2 μg/mL, 5 μg/mL, 10 μg/mL, and 20 μg/mL) was added to a corresponding well. The 0 μg/mL group was set as a blank control group. Three replicate wells were set for each treatment of the compounds 1 and 2. The plate was incubated in a CO2 incubator for 24 h. 20 μL of CCK-8 reagent was added to each well, and the plate was incubated in a CO2 incubator for 1 h and then placed in the microplate reader to read the absorbance at 450 nm. The test was repeated 3 times, and a mean value was taken. The measured absorbance was substituted into a cell viability calculation formula to calculate the cell viability.
The data of the present disclosure was processed with the Excel and Graphpad software. The experimental data was tested by one-way ANOVA. The post-hoc multiple comparison was conducted with the LSD. P<0.05 indicated a significant difference.

Structure (SMILES) | Erythema, scale, and infiltration scores and total scores (SCORAD) of model group versus treated groups [1] | Ranking in terms of spleen weight and spleen index [2] | Therapeutic effect for AD [2] | Therapeutic effect versus the positive drug [2] | Spleen weights and spleen indexes versus blank control group [2] | Spleen weight, mean value [2] [g] | Spleen weight [2] | viability at 24 h ([3]; 0.05 μg/mL) [%] | viability at 24 h ([3]; 0.10 μg/mL) [%] | viability at 24 h ([3]; 0.20 μg/mL) [%] | viability at 24 h ([3]; 0.50 μg/mL) [%] | viability at 24 h ([3]; 1.00 μg/mL) [%] | viability at 24 h ([3]; 2.00 μg/mL) [%] | viability at 24 h ([3]; 5.00 μg/mL) [%] | viability at 24 h ([3]; 10.00 μg/mL) [%] | viability at 24 h ([3]; 20.00 μg/mL) [%]
N#CC[C@H](C1CCCC1)n1cc(-c2nc(Nc3ccc(C(=O)NCCCCNc4cccc5c4C(=O)N(C4CCC(=O)NC4=O)C5=O)cc3)nc3[nH]ccc23)cn1 (some centres unmarked) [Compound 1] | significantly higher than the respective scores in the Compound 1- and Compound 2-treating groups (P<0.05) | the Compound 1-treating group>the Compound 2-treating group>the positive drug group>the AD model group (P<0.05) | had a therapeutic effect for AD, could improve the inflammatory responses in atopic dermatitis mouse models | exhibited a better therapeutic effect than the positive drug | significantly reduced (P<0.05) | 0.0862 | 0.0798 g and 0.0934 g and 0.0855 g | 80.5 | 85.7 | 90.7 | 98.3 | 98.3 | 93.8 | 108 | 110 | 80.3
CCS(=O)(=O)N1CC(CC#N)(n2cc(-c3nc(Nc4ccc(C(=O)NCCCCNc5cccc6c5C(=O)N(C5CCC(=O)NC5=O)C6=O)cc4)nc4[nH]ccc34)cn2)C1 (centres unmarked) [Compound 2] | significantly higher than the respective scores in the Compound 1- and Compound 2-treating groups (P<0.05) | the Compound 1-treating group>the Compound 2-treating group>the positive drug group>the AD model group (P<0.05) | had a therapeutic effect for AD, could improve the inflammatory responses in atopic dermatitis mouse models | exhibited a better therapeutic effect than the positive drug | significantly reduced (P<0.05) | 0.0732 | 0.0749 g and 0.0739 g and 0.0708 g | 95.5 | 95.6 | 106 | 113 | 101 | 107 | 124 | 120 | 93.3
